# From ChEMBL document CHEMBL6120959
# Activity calls are given as the source filed them. No cut-off for these calls is given here.
# Assays:
# [1] = target: Lysine-specific histone demethylase 1A (Homo sapiens) (UniProt O60341); test: Inhibition of LSD1 in patient-derived human Colorectal cancer organoid at >2.5 uM treated for 10 days by IHC analysis; assay type: tissue-based; conditions: time 10.0 day
# [2] = target: Lysine-specific histone demethylase 1A (Homo sapiens) (UniProt O60341); assay type: tissue-based; conditions: Colorectal cancer organoid, dose 0.313-5 µM, time 10.0 day
# [3] = target: Lysine-specific histone demethylase 1A (Homo sapiens) (UniProt O60341); test: Inhibition of LSD1 (unknown origin) demethylase-mediated FAD-dependent H2O2 production at 1 uM by fluorescence coupling enzyme assay
# [4] = target: T1, Histone deacetylase (Homo sapiens) (UniProt Q13547+O15379+Q9UBN7+Q92769+Q9UQL6+Q8WUI4+Q9BY41+Q96DB2+P56524+Q9UKV0+Q969S8); test: Inhibition of HDAC in patient-derived human Colorectal cancer organoid assessed as increase in acetyl-histone H3 level at 0.313 to 5 uM treated for 10 days by Western blot analysis; assay type: tissue-based; conditions: dose 0.313-5 µM, time 10.0 day
# [5] = target: Lysine-specific histone demethylase 1A (Homo sapiens) (UniProt O60341); assay type: tissue-based; conditions: Colorectal cancer organoid, dose > 2.5 µM, time 10.0 day
# [6] = target: T1, Histone deacetylase (Homo sapiens); assay type: cell-based; conditions: HCT-116, dose 0.063-1 µM, time 48.0 hrs
# [7] = target: T1, Histone deacetylase (Homo sapiens); test: Inhibition of HDAC in patient-derived human Colorectal cancer organoid assessed as increase in acetyl-tubulin level at 0.313 to 5 uM treated for 10 days by Western blot analysis; assay type: tissue-based; conditions: dose 0.313-5 µM, time 10.0 day
# [8] = target: T1, Histone deacetylase (Homo sapiens); assay type: cell-based; conditions: HCT-116, dose 0.063-1 µM, time 48.0 hrs; remark: listed apart in the source
# [9] = target: Lysine-specific histone demethylase 1A (Homo sapiens) (UniProt O60341); assay type: cell-based; conditions: HCT-116, dose 0.063-1 µM, time 48.0 hrs
inhibition [1],inhibition [2],inhibition [4],inhibition [5],inhibition [6],inhibition [7],inhibition [8],Compound,inhibition [3],inhibition [9]
Active,Active,Active,Active,Dose-dependent-effect,Active,Dose-dependent-effect,O=C(/C=C/c1cccc(S(=O)(=O)N[C@@H]2C[C@H]2c2ccccc2)c1)NO,Active; More Effective Than Standard Lsd1 Inhibitor At All Concentrations Tested,Active
–,–,–,–,–,–,–,O=C(CCCCCCC(=O)Nc1ccccc1)NO,–,Active; Compound Might Have Indirect Lsd1 Inhibitory Effect
